Reference: patent publication US12005126B2, “Compositions for oral administration of pentosan polysulfate in form of nanoparticles with improved intestinal absorption” (NEXTRARESEARCH S.R.L., priority 2018, dated 2024)

Assay: In-vivo pharmacokinetics study in rats after oral administration
Conditions: 1 mL, PPS conc. 4.64 mg/mL
Protocol: The bioavailability of PPS from the formulations of this invention can be evaluated in rats upon oral administration by gavage of the powder dispersion in comparison to the solution of non-formulated PPS
Plasma concentration versus time curve were evaluated in an in-vivo pharmacokinetics study carried out in rats after oral administration of 1 mL of a PPS aqueous solution having a concentration 4.64 mg/mL (Form I) or 1 mL of the PPS/chitosan nanosuspension (PPS conc. 4.64 mg/mL). In the nanosuspension the ratio between the volume of solution of PPS (6.5 mg/mL) and of solution of chitosan (6.5 mg/mL) used for the production of the nanoparticles was 5:2 (v/v).

Area under the curve: 1306 µg·min/mL
tmax: 1 h
Substance: Pentosan Polysulfate sodium [PPS solution]
